Data from US7235560B2, “Pyrimidine derivative as selective COX-2 inhibitors” (priority 2002, dated 2007).

What was measured:
COX-1 = COX-1 (Homo sapiens, UniProt P23219); experiment: Microsomal assay, inhibition of COX-1; assay type: biochemical
microsomal h-COX2 = biological target: T1, microsomal h-COX2 (Homo sapiens, UniProt P35354); experiment: Microsomal assay, inhibition of h-COX2 (PGE2 by EIA); assay type: biochemical; details: microsomal preparation from baculovirus infected SF9 cells; 1 hour preincubation; 0.1 μM arachidonic acid; read-out: COX-2: IC50
T1 construct: made in house; host or cells: baculovirus infected SF9 cells (microsomal preparation)
T1 sequence (P35354 18-604): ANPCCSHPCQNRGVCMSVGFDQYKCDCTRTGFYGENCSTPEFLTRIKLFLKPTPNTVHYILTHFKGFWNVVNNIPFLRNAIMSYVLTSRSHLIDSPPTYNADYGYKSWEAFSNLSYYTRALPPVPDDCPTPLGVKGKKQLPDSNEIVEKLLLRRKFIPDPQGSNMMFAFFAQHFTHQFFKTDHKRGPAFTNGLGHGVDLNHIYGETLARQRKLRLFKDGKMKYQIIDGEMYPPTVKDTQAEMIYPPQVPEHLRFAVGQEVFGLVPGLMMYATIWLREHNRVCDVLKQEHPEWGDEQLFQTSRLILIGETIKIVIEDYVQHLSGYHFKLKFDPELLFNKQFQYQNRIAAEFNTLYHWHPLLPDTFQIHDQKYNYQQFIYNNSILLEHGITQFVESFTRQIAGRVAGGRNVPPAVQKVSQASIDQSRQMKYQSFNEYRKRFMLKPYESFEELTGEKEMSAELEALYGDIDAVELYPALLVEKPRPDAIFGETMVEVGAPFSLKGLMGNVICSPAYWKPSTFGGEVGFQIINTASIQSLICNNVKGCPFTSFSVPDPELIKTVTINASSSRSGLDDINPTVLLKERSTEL
Method: Inhibitory activity against microsomal h-COX2 was assessed against a microsomal preparation from baculovirus infected SF9 cells. An aliquot of microsomal preparation was thawed slowly on ice and a 1/40,000 dilution prepared from it into the assay buffer (sterile water, degassed with argon containing 100 mM HEPES (pH 7.4), 10 mM EDTA (pH7.4), 1 mM phenol, 1 mM reduced glutathione, 20 mg/ml gelatin and 0.001 mM Hematin). Once diluted the enzyme solution was then sonicated for 5 seconds (Branson sonicator, setting 4, 1 cm tip) to ensure a homogeneous suspension. 155 μl enzyme solution was then added to each well of a 96-well microtitre plate containing either 5 μl test compound (40× required test concentration) or 5 μl DMSO for controls. Plates were then mixed and incubated at room temperature for 1 hour. Following the incubation period, 40 μl of 0.5 μM arachidonic acid was added to each well to give a final concentration of 0.1 μM. Plates were then mixed and incubated for exactly 10 minutes (room temperature) prior to addition of 25 μl 1M HCl (hydrochloric acid) to each well to stop the reaction. 25 μl of 1M NaOH (sodium hydroxide) was then added to each well to neutralise the solution prior to determination of PGE2 levels by enzyme immunoassay (EIA).
The following IC50 values for inhibition of COX-2 and COX-1 were obtained from the microsomal assay for compounds of the invention: […]

COX-1, sequence (P23219 24-599): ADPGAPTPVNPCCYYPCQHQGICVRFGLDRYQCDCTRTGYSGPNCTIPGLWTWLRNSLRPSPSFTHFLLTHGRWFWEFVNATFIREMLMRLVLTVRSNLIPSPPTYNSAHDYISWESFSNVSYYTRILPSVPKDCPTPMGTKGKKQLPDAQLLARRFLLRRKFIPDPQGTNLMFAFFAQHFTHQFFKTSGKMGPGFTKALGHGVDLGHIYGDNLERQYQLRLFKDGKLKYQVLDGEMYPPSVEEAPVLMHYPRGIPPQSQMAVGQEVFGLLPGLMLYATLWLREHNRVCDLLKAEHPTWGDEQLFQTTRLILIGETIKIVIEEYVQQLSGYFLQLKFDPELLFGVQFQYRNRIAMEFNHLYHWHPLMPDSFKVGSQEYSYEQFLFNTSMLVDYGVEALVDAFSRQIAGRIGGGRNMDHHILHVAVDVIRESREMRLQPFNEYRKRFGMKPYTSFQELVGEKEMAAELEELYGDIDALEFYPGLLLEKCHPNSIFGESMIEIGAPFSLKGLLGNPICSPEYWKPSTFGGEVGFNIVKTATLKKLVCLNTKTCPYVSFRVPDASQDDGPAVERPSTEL

Structure (SMILES)	IC50 (COX-1)	IC50 (microsomal h-COX2)
Cc1cc(-c2ccc(S(C)(=O)=O)cn2)nc(NCc2ccccc2)n1 [Example 1]	23100 nM	51 nM
Cc1cccc(CN(C)c2nc(-c3ccc(S(C)(=O)=O)cn3)cc(C(F)(F)F)n2)n1 [Example 3, [4-(5-Methanesulfonyl-pyridin-2-yl)-6-trifluoromethyl-pyrimidin-2-yl]-methyl-(6-methyl-pyridin-2-ylmethyl)-amine]	67100 nM	5 nM
CS(=O)(=O)c1ccc(-c2cc(C(F)(F)F)nc(NC3CCCCC3)n2)nc1 [Example 5, Cyclohexyl-[4-(5-methanesulfonyl-pyridin-2-yl)-6-trifluoromethyl-pyrimidin-2-yl]-amine]	> 100000 nM	19 nM
